These results are taken from publication PMC9963009, “Investigation of the Protective Effect for GcMAF by a Glycosidase Inhibitor and the Glycan Structure of Gc Protein” (Molecules, 2023).

This assay addresses T1, α-N-acetylgalactosaminidase (α-GalNAc-ase) from chicken liver (Gallus gallus, UniProt Q90744).
T1 construct: gene NAGA; commercial enzyme from chicken liver
T1 sequence (Q90744 1-405): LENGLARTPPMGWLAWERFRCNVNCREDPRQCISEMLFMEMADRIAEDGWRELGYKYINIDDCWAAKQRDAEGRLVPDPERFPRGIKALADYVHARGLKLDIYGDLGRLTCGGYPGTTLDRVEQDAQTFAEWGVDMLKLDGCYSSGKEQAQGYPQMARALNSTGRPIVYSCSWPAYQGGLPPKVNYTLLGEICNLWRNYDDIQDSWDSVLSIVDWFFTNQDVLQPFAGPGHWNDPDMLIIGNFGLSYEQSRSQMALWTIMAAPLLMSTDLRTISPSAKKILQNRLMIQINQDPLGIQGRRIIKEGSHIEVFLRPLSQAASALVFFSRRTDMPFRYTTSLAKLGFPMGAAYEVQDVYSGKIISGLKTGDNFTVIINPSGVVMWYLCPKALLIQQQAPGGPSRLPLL
Description: LC-MS of Gc protein glycopeptides after treatment with a mix of three glycosidases with/without […] inhibitor. Type of assay: biochemical.

Each structure is given as a SMILES string.

With `OCC1NC(CNCCc2ccccc2)C(O)C1O` (stereo not shown) [iminocyclitol, 2-Hydroxymethyl-5-(phenethylaminomethyl)-pyrrolidine-3,4-diol], the “LC-MS of Gc protein glycopeptides after treatment with a mix of three glycosidas” value was “the inhibitory activity of iminocyclitol against α-GalNAc-ase was also observed (Figure 4c)”.
